Calls of active or inactive are those of the source.
Tests used:
[1] = biological target: Glyceraldehyde-3-phosphate dehydrogenase (Homo sapiens, UniProt P04406)
[2] = intracellular Trypanosoma cruzi inhibitors in host cells – cell-based, plate reader, cherry-pick samples, set 3, dose response (AID 651818); format: functional;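 also: compounds incubated with infected cells for about four days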
cells [3] = format: functional, cell-based
cells [4] = format: functional, cell-based; remark: listed apart in the source
[5] = reduction of Shn3 3'UTR-driven luciferase in osteoblasts – cell-based, Clone20 osteoblasts, firefly luciferase, cherry-picked, dose response (AID 624132); format: functional;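 also: firefly luciferase luminescence from reporter carrying the Shn3 3'UTR in osteoblasts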
[6] = biological target: T1, Replicative DNA helicase DnaB (Mycobacterium tuberculosis, UniProt P9WMR3); experiment: DnaB intein splicing inhibitors, dose response, biochemical, cell-free fluorescence (AID 449749); format: functional
T1 sequence (P9WMR3 whole entry): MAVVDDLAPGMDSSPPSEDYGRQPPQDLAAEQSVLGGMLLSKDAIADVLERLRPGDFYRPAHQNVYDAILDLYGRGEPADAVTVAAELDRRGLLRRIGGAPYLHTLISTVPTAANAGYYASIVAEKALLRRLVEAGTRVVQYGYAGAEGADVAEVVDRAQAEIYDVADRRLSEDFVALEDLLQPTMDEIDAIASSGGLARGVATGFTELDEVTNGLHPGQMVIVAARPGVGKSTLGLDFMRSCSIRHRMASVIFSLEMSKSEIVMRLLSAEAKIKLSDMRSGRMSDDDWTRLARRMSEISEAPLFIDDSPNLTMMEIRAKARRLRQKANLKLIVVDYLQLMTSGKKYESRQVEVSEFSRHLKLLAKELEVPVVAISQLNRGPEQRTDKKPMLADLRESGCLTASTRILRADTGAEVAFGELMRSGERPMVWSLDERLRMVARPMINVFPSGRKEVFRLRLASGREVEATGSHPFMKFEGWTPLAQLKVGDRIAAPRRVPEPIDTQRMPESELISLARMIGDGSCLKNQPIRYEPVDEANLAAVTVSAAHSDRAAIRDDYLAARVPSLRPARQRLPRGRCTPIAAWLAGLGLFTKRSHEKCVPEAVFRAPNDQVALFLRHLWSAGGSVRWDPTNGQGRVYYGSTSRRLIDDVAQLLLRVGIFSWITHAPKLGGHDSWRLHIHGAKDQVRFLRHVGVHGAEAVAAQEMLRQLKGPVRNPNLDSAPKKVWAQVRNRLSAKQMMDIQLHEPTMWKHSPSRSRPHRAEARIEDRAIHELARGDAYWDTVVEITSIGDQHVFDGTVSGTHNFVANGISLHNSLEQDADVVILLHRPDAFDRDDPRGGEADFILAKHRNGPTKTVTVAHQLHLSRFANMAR

[7] = loss of viability in HepG2 cells – cell-based, CellTiter-Glo, cherry-picked, cytotoxicity control for Shn3 inhibitor project, dose response (AID 624134); format: functional
[8] = non-specific 3'UTR reporter inhibition in Clone20-Shn3RL – cell-based, Renilla luciferase, cherry-picked, counter-screen for Shn3 inhibitor project, dose response (AID 624133); format: functional
Protein RecA = biological target: T2, Protein RecA (Mycobacterium tuberculosis, UniProt P9WHJ3); experiment: Fluorescence Cell-Free Homogeneous Dose Retest to Identify Inhibitors of RecA-Intein Splicing Activity. [Related pubchem assays (depositor defined):AID2097, AID2223, AID489010, AID492950]; format: functional
T2 sequence (P9WHJ3 whole entry): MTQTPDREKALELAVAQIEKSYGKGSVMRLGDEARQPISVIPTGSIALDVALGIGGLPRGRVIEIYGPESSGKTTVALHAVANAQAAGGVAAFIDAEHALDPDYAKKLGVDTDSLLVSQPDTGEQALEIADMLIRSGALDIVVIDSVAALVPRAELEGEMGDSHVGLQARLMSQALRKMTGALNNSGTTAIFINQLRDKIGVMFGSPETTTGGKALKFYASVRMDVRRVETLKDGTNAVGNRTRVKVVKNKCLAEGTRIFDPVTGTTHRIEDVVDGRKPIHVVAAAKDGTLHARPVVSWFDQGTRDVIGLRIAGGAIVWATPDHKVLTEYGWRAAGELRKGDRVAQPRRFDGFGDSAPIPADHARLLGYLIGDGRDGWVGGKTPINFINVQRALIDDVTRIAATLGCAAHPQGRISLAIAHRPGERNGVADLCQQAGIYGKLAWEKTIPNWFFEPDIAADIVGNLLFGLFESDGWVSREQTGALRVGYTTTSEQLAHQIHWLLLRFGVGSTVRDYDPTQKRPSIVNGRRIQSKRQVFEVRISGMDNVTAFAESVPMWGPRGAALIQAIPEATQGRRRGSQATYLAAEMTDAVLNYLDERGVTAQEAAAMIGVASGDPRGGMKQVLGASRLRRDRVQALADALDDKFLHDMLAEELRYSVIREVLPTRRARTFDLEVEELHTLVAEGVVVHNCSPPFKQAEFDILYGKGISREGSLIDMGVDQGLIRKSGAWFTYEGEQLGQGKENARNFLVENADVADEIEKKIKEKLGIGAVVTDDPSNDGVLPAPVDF

[9] = biological target: T3, Alkaline phosphatase, tissue-nonspecific isozyme (Homo sapiens, UniProt P05186); experiment: potency against alkaline phosphatase TNAP – biochemical, luminescent, dose response, SAR follow-up (AID 1056)
T3 sequence (P05186 whole entry): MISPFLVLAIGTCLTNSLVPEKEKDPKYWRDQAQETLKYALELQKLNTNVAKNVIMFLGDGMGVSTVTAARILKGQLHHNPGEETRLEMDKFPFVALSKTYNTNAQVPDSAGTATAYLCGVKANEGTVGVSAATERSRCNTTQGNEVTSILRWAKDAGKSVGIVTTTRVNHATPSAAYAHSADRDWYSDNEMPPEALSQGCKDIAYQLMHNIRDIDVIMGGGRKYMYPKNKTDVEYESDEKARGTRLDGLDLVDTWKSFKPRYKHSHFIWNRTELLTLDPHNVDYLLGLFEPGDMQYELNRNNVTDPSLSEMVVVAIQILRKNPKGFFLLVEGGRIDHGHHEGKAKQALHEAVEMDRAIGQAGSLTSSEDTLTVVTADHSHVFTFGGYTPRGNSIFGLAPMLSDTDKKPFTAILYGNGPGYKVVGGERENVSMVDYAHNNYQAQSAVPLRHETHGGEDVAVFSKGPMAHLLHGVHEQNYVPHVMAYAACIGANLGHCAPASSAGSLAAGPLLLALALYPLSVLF

[10] = biological target: T4, Corticotropin-releasing factor receptor 2/Corticotropin-releasing factor-binding protein (Homo sapiens, UniProt P24387+Q13324); experiment: Dose Response confirmation of uHTS hits for small molecule antagonists of the CRF-binding protein and CRF-R2 receptor complex.; format: functional; conditions: read-out: IC50_Mean
T4 sequence (Q13324 whole entry): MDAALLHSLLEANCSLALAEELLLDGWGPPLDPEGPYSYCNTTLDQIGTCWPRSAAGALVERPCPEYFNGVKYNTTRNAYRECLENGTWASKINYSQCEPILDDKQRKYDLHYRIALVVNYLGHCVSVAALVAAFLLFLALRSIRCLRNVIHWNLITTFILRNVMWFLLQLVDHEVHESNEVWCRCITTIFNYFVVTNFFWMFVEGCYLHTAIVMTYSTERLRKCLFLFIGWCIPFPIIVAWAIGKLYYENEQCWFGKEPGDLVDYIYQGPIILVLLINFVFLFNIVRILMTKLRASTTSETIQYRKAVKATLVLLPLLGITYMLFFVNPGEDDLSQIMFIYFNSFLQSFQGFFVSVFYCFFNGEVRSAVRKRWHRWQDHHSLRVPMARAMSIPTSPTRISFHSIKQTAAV
T4 sequence (P24387 whole entry): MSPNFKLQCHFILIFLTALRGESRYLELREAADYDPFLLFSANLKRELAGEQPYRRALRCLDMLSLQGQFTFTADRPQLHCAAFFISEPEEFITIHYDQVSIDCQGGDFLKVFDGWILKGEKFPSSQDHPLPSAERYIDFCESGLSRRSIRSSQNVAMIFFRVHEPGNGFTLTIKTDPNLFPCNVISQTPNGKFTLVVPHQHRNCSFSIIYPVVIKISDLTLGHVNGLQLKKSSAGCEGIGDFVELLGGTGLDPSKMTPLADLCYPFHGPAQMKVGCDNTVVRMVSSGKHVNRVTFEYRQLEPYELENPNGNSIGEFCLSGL

[11] = biological target: T4, Corticotropin-releasing factor receptor 2/Corticotropin-releasing factor-binding protein; experiment: activators of CRF receptor 2 with binding protein – uHTS hits, confirmation (AID 602473); format: functional; conditions: read-out: EC50_Mean
[12] = biological target: T5, Mannose-6-phosphate isomerase (Homo sapiens, UniProt P34949); experiment: MPI inhibition at elevated mannose 6-phosphate – biochemical, fluorescence intensity, high mannose 6-phosphate, primary screen (AID 1220)
T5 sequence (P34949 whole entry): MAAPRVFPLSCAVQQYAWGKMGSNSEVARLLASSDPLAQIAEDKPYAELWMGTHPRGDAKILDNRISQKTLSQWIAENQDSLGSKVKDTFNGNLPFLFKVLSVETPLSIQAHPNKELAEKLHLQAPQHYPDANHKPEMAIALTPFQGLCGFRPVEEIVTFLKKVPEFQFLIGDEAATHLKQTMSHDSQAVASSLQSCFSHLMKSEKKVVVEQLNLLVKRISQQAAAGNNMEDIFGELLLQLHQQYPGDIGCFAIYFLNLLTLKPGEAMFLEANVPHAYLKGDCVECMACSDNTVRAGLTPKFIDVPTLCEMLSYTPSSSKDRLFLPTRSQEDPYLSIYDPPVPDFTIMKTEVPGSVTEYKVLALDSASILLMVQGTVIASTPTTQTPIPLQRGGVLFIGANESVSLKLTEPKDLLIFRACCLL

[13] = biological target: T6, Rac GTPase-activating protein 1 (Homo sapiens, UniProt Q9H0H5); experiment: blockers of MgcRacGAP-driven Rac1 GTP hydrolysis – biochemical, ADP Hunter fluorescence, primary and confirmatory, confirmation (AID 624330); format: functional
T6 sequence (Q9H0H5 whole entry): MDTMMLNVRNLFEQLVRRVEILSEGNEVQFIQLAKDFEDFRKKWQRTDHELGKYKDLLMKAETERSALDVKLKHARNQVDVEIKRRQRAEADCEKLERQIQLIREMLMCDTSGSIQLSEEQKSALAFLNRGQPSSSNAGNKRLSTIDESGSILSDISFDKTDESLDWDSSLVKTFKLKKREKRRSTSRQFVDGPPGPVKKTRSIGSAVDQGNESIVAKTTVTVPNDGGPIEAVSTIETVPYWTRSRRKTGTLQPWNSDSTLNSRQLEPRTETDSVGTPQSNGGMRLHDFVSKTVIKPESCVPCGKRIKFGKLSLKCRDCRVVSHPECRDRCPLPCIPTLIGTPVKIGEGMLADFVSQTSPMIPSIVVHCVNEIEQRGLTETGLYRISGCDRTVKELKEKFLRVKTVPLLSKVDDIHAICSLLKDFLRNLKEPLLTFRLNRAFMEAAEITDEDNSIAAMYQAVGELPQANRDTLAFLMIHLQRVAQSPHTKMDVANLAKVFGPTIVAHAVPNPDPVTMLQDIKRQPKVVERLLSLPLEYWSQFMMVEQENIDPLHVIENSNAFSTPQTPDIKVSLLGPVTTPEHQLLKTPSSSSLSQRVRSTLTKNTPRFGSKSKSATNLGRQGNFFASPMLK

Chain of Glyceraldehyde-3-phosphate dehydrogenase (P04406 whole entry): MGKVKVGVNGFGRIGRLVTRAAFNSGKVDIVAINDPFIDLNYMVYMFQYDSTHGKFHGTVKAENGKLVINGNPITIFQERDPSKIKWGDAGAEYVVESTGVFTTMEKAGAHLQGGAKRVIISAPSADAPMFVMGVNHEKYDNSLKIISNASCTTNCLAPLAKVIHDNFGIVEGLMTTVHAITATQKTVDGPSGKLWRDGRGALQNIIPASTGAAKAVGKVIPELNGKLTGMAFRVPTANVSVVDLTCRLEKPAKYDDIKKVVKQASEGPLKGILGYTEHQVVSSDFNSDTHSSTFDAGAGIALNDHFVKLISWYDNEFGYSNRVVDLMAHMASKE

Compound: O=C1C(Cl)=C(N2CCN(c3ncccn3)CC2)C(=O)N1c1cccc(C(F)(F)F)c1
- IC50 [1]: > 50 µM (inconclusive)

Compound: C[C@@H]1CCCCO[C@@H](CN(C)C(=O)NC2CCCCC2)[C@@H](C)CN([C@H](C)CO)C(=O)c2cc(NC(=O)Nc3ccc(C(F)(F)F)cc3)ccc2O1
- AC50 [2]: 4.12 µM (active)

Compound: CCC1CCc2sc(C(=O)NCc3ccccn3)cc2C1 (configuration not stated)
- EC50 (cells [3]): > 350 µM (not active)
- EC50 (cells [4]): 52.4 µM (active)

Compound: COc1ccc(S(=O)(=O)Nc2ccc3c(c2)C(=O)N([C@@H](C)CO)C[C@H](C)[C@H](CN(C)Cc2ccc(Oc4ccccc4)cc2)O3)cc1
- AC50 [2]: 1.94 µM (active)

Compound: C[C@@H]1CN([C@H](C)CO)C(=O)Cc2cc(NC(=O)Nc3ccc(F)cc3)ccc2O[C@@H]1CN(C)Cc1ccc(C(=O)Nc2ccccc2N)cc1
- AC50 [2]: 2.04 µM (active)

Compound: C[C@@H]1CCCCO[C@H](CN(C)Cc2ccc(C(F)(F)F)cc2)[C@@H](C)CN([C@H](C)CO)C(=O)c2cc(NC(=O)Nc3ccccc3)ccc2O1
- AC50 [2]: 4.7 µM (active)

Compound: COc1ccccc1-c1cc(C(F)(F)F)nc(S(=O)(=O)CCCC(=O)N2CCCCC2C)n1 (configuration not stated)
- AC50 [5]: 2.65 µM (active)
- EC50 (cells [3]): > 350 µM (not active)
- AC50 [6]: 1.97 µM (active)
- AC50 [7]: 25.7 µM (active)
- AC50 [8]: 8.84 µM (active)
- EC50 (Protein RecA): 3.11 µM (active)
- EC50 (cells [4]): > 350 µM (not active)

Compound: C[C@@H]1CN([C@@H](C)CO)C(=O)c2cccc(NC(=O)c3nc4ccccc4s3)c2O[C@H]1CN(C)Cc1ccc(-c2ccccc2)cc1
- AC50 [2]: 3.59 µM (active)

Compound: c1cncc(-c2nccs2)c1
- IC50 [1]: > 100 µM (not active)
- IC50 [9]: > 100 µM (inactive)

Compound: O=C(c1[nH]nc2c1COc1ccccc1-2)N1CCCC1
- IC50 [1]: > 100 µM (not active)
- IC50 [9]: 0.289 µM (active)

Compound: CCCSc1nnc(NC(C)=O)[nH]1
- IC50 [1]: > 10 µM (inconclusive)
- IC50 [10]: > 47.1 µM (inactive)
- IC50 [9]: 0.449 µM (active)
- EC50 [11]: > 53 µM (inactive)

Compound: COc1cc(NC(c2ccccc2)c2ccccc2)cc(OC)c1OC
- IC50 [12]: > 50 µM (not active)

Compound: Cc1ccc(-n2nc3c(=O)n(CC(=O)NCc4ccccc4)nc(C)c3c2C)cc1
- EC50 (cells [3]): > 350 µM (not active)
- EC50 (cells [4]): > 350 µM (not active)

Compound: Cc1ccc(O)c(/C=N/c2ccc3[nH]ncc3c2)c1
- IC50 [12]: > 50 µM (not active)
- IC50 [13]: 27.7 µM (active)

Compound: OCCC1CN(Cc2c(O)ccc3ccccc23)CCN1CCc1ccccc1 (configuration not stated)
- IC50 [12]: > 50 µM (not active)

Compound: CC(=O)Nc1nnc(SCCc2ccccc2)[nH]1
- IC50 [1]: > 100 µM (not active)
- IC50 [9]: > 100 µM (inactive)

Compound: O=C(O)c1ccc(N2C(=O)CSC2=S)cc1
- EC50 (cells [3]): > 350 µM (not active)
- EC50 (cells [4]): > 350 µM (not active)

Compound: c1cncc(Cn2ccnc2)c1
- IC50 [1]: > 100 µM (not active)
- IC50 [9]: > 100 µM (inactive)

Compound: COc1ccc(OC)c(S(=O)(=O)Nc2ccc[nH]c2=O)c1
- IC50 [1]: > 100 µM (not active)
- IC50 [9]: 6.32 µM (active)

Source: ChEMBL document CHEMBL1201862, “PubChem BioAssay data set” (2004)
